Values of other authors as cited in patent publication US20220370535A1, “ANTIVIRAL ESSENTIAL OIL COMPOSITIONS” (priority 2020, published 2022).

Legend:
[1] = test system: SARS-CoV-2; settings: inhibition of the virus in cell-based assay
[2] = biological target: SARS-CoV-2, Mpro (Severe acute respiratory syndrome coronavirus 2, UniProt P0DTD1); settings: nelfinavir, pitavastatin, perampanel, praziquantel compared

## CCN(CC)CCCC(C)Nc1ccnc2cc(Cl)ccc12 (centres unmarked) [chloroquine]
[1]
  EC50: 1.13 µM

## Cc1c(O)cccc1C(=O)N[C@@H](CSc1ccccc1)[C@H](O)CN1C[C@H]2CCCC[C@H]2C[C@H]1C(=O)NC(C)(C)C [nelfinavir]
[2]
  inhibitor ranking among 4 tested drugs: most potential inhibitor
